Reference: PubChem BioAssay AID256 (DTP/NCI, 2004)
Where “and” joins values, the source holds several entries; their conditions need not be identical. Identical values can stand only once. Inconclusive results and toxic doses are left out. How the source made its calls: active means survival T/C of 150% or more; inactive means T/C below 125% in these data. Non-standard residues stand in square brackets, D forms with d. Residues, ends and D or L forms follow the SMILES beside them. ξ: configuration not given here. *: point of attachment. ONp = O=[N+]([O-])c1ccc(O*)cc1; ξS = NC(CO)C(=O)O

Tested on: CD2F1 mice, L1210 leukemia ip, survival T/C
Assay: NCI In Vivo Anticancer Drug Screen. Data for tumor model L1210 Leukemia (intraperitoneal) in CD2F1 (CDF1) mice
Conditions: endpoint: mean survival time, higher = longer survival
Summary of the method: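 Antitumor effect is scored in animals hosting a serially transplanted tumor. Values compare compound-dosed animals against vehicle-only controls as a simple quotient.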

[1] = dose: 25.0 mg/kg/injection, schedule: Q01DX009 (ip), vehicle: other
[2] = dose: 75.0 mg/kg/injection, schedule: Q01DX001 (ip), vehicle: saline
[3] = dose: 150.0 mg/kg/injection, schedule: Q01DX001 (ip), vehicle: saline
[4] = dose: 200.0 mg/kg/injection, schedule: Q01DX009 (ip), vehicle: saline with Tween-80
[5] = dose: 400.0 mg/kg/injection, schedule: Q01DX009 (ip), vehicle: saline with Tween-80
[6] = dose: 25.0 mg/kg/injection, schedule: Q04DX003 (ip), vehicle: saline with Tween-80
[7] = dose: 50.0 mg/kg/injection, schedule: Q04DX003 (ip), vehicle: saline with Tween-80
[8] = dose: 100.0 mg/kg/injection, schedule: Q04DX003 (ip), vehicle: saline with Tween-80
[9] = dose: 200.0 mg/kg/injection, schedule: Q04DX003 (ip), vehicle: saline with Tween-80
[10] = dose: 400.0 mg/kg/injection, schedule: Q04DX003 (ip), vehicle: saline with Tween-80
[11] = dose: 100.0 mg/kg/injection, schedule: Q04DX003 (ip), vehicle: saline
[12] = dose: 100.0 mg/kg/injection, schedule: Q01DX009 (ip), vehicle: saline with Tween-80

Measured: T/C

COC(=O)Nc1nc2ccccc2[nH]1
inactive: dose: 100.0 mg/kg/injection, schedule: Q01DX001 (ip), vehicle: saline with Tween-80 98 % of control | dose: 200.0 mg/kg/injection, schedule: Q01DX001 (ip), vehicle: saline with Tween-80 91 % of control | dose: 400.0 mg/kg/injection, schedule: Q01DX001 (ip), vehicle: saline with Tween-80 96 % of control | dose: 500.0 mg/kg/injection, schedule: Q04DX003 (ip), vehicle: saline with Tween-80 119 % of control | dose: 600.0 mg/kg/injection, schedule: Q04DX003 (ip), vehicle: saline with Tween-80 122 % of control | dose: 800.0 mg/kg/injection, schedule: Q04DX003 (ip), vehicle: saline with Tween-80 111 % of control

COc1cc2c[n+](C)c3c4cc5c(cc4ccc3c2cc1OC)OCO5 (tested in a mixture with another compound)
inactive: dose: 3.13 mg/kg/injection, schedule: Q01DX009 (ip), vehicle: other 118 % of control and 112 % of control | dose: 5.0 mg/kg/injection, schedule: Q01DX009 (ip), vehicle: saline 119 % of control | dose: 6.25 mg/kg/injection, schedule: Q01DX009 (ip), vehicle: Klucel (hydroxypropylcellulose) (HPC) 112 % of control | dose: 6.25 mg/kg/injection, schedule: Q01DX009 (ip), vehicle: other 117 % of control and 112 % of control | dose: 12.5 mg/kg/injection, schedule: Q01DX009 (ip), vehicle: Klucel (hydroxypropylcellulose) (HPC) 124 % of control | dose: 12.5 mg/kg/injection, schedule: Q01DX009 (ip), vehicle: other 113 % of control and 118 % of control | [1] 113 % of control and 116 % of control | dose: 50.0 mg/kg/injection, schedule: Q01DX009 (ip), vehicle: Klucel (hydroxypropylcellulose) (HPC) 112 % of control

CN(C)N=C1CCCCC1
inactive: [2] 96 % of control | [3] 98 % of control

CCCCCCCCCCCCCCCCOc1ccc(C(C)=O)cc1
inactive: [4] 89 % of control | [5] 96 % of control

Clc1c(CI)ccc(CI)c1Cl
inactive: [6] 95 % of control | [7] 97 % of control | [8] 102 % of control

CC(O)CN1CCN(CC(C)O)CC1.[I][Pt+2][I] (configuration not stated)
inactive: [6] 102 % of control | [7] 109 % of control | [8] 95 % of control | [9] 104 % of control | [10] 100 % of control

N/N=C(\N)c1ccc2ccc3cccnc3c2n1
inactive: [11] 89 % of control | dose: 200.0 mg/kg/injection, schedule: Q04DX003 (ip), vehicle: saline 104 % of control | dose: 400.0 mg/kg/injection, schedule: Q04DX003 (ip), vehicle: saline 108 % of control

O/N=c1/ccn(O)c2ccccc12
inactive: dose: 0.25 mg/kg/injection, schedule: Q03HX024 (ip), vehicle: saline 104 % of control | dose: 0.5 mg/kg/injection, schedule: Q03HX008 (ip), vehicle: saline 112 % of control | dose: 0.5 mg/kg/injection, schedule: Q03HX016 (ip), vehicle: saline 104 % of control | dose: 0.5 mg/kg/injection, schedule: Q03HX024 (ip), vehicle: saline 116 % of control | dose: 1.0 mg/kg/injection, schedule: Q01DX009 (ip), vehicle: saline 123 % of control | dose: 1.0 mg/kg/injection, schedule: Q03HX008 (ip), vehicle: saline 113 % of control | dose: 1.0 mg/kg/injection, schedule: Q03HX016 (ip), vehicle: saline 113 % of control | dose: 2.0 mg/kg/injection, schedule: Q03HX024 (ip), vehicle: saline 123 % of control | dose: 16.0 mg/kg/injection, schedule: Q01DX001 (ip), vehicle: saline 124 % of control | dose: 16.0 mg/kg/injection, schedule: Q04DX003 (ip), vehicle: saline 96 % of control | dose: 16.0 mg/kg/injection, schedule: Q08DX002 (ip), vehicle: saline 109 % of control | dose: 32.0 mg/kg/injection, schedule: Q08DX002 (ip), vehicle: saline 88 % of control

c1ccc(-c2nn(-c3ccccc3)[n+](-c3ccccc3)n2)cc1
inactive: dose: 1.25 mg/kg/injection, schedule: Q01DX009 (ip), vehicle: saline with Tween-80 100 % of control | dose: 2.5 mg/kg/injection, schedule: Q01DX009 (ip), vehicle: saline with Tween-80 100 % of control | dose: 5.0 mg/kg/injection, schedule: Q01DX009 (ip), vehicle: saline with Tween-80 104 % of control | dose: 5.0 mg/kg/injection, schedule: Q04DX003 (ip), vehicle: saline 95 % of control

NC(CO)C(=O)NCC(=O)Oc1ccc([N+](=O)[O-])cc1 (configuration not stated) (H-[ξS]-Gly-ONp)
inactive: [2] 100 % of control | [3] 102 % of control | dose: 300.0 mg/kg/injection, schedule: Q01DX001 (ip), vehicle: saline 96 % of control

CN(Cc1ccccc1)C(=O)C(=O)c1c[nH]c2ccccc12
inactive: [12] 95 % of control | [8] 98 % of control | [4] 89 % of control | [9] 87 % of control | [5] 91 % of control | [10] 90 % of control

CN(C)CCCn1c2ccccc2c2cnccc21
inactive: dose: 25.0 mg/kg/injection, schedule: Q04DX003 (ip), vehicle: saline 98 % of control | dose: 50.0 mg/kg/injection, schedule: Q04DX003 (ip), vehicle: saline 110 % of control | [11] 113 % of control

CCCCCCCCCCCCCCC(=O)O.[Pb]
inactive: dose: 75.0 mg/kg/injection, schedule: Q01DX001 (ip), vehicle: other 103 % of control | dose: 150.0 mg/kg/injection, schedule: Q01DX001 (ip), vehicle: other 103 % of control | dose: 300.0 mg/kg/injection, schedule: Q01DX001 (ip), vehicle: other 98 % of control

NC(=O)N/N=C/c1ccccc1N
inactive: [8] 97 % of control | [9] 108 % of control | [10] 98 % of control

O=C(CCN1CC1)NCCCCCCCCNC(=O)CCN1CC1
inactive: dose: 22.0 mg/kg/injection, schedule: Q01DX001 (ip), vehicle: carboxymethylcellulose (CMC) 101 % of control | dose: 33.0 mg/kg/injection, schedule: Q01DX001 (ip), vehicle: carboxymethylcellulose (CMC) 112 % of control | dose: 50.0 mg/kg/injection, schedule: Q01DX001 (ip), vehicle: carboxymethylcellulose (CMC) 113 % of control

Cc1ccc(N2OCCN(C(=O)c3ccc([N+](=O)[O-])cc3)C2c2ccccc2)cc1 (configuration not stated)
inactive: [8] 98 % of control | [9] 97 % of control | [10] 98 % of control

COc1cc(Cl)ccc1NC(=O)Nc1ccc(S(N)(=O)=O)cc1
inactive: dose: 50.0 mg/kg/injection, schedule: Q01DX009 (ip), vehicle: saline with Tween-80 91 % of control | [12] 100 % of control | [4] 91 % of control

O=Cc1ccccc1O.O=Cc1ccccc1O.O=Cc1ccccc1O.[La]
inactive: [8] 89 % of control | [9] 98 % of control

CCc1c(Br)c(CC)c(CC)c(CC)c1CC
inactive: [8] 98 % of control | [9] 98 % of control | [10] 97 % of control

Cc1cccc(SCC(=O)O)c1
inactive: dose: 100.0 mg/kg/injection, schedule: Q04DX003 (ip), vehicle: other 96 % of control | dose: 200.0 mg/kg/injection, schedule: Q04DX003 (ip), vehicle: other 96 % of control | dose: 400.0 mg/kg/injection, schedule: Q04DX003 (ip), vehicle: other 94 % of control

CN(Cc1ccc([N+](=O)[O-])cc1)N=Nc1ccc(C(=O)O)cc1
inactive: [1] 94 % of control | dose: 50.0 mg/kg/injection, schedule: Q01DX009 (ip), vehicle: other 97 % of control | dose: 100.0 mg/kg/injection, schedule: Q01DX009 (ip), vehicle: other 86 % of control | dose: 200.0 mg/kg/injection, schedule: Q01DX009 (ip), vehicle: other 94 % of control

O=C1NC(=O)C(=O)N1
inactive: dose: 100.0 mg/kg/injection, schedule: Q01DX009 (ip), vehicle: saline 94 % of control | dose: 200.0 mg/kg/injection, schedule: Q01DX009 (ip), vehicle: saline 105 % of control | dose: 400.0 mg/kg/injection, schedule: Q01DX009 (ip), vehicle: saline 108 % of control
